Experimental data reported in ChEMBL document CHEMBL1201862, “PubChem BioAssay data set” (2004).
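These data come from cells grown in 96-well plates and exposed to compound for 48 hours at five concentrations. Abbreviation: GI50, concentration required for 50% inhibition of growth.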 The source made the active and inactive calls. Rule as the data show it: active = GI50 up to about 1.1 µM and inactive = higher.

What was measured:
Test in all cases: NCI anticancer screen, dose series, 48 h
786-0 = tested on: 786-0
A498 = tested on: A498
ACHN = tested on: ACHN
BT-549 = tested on: BT-549
CAKI-1 = tested on: CAKI-1
CCRF-CEM = tested on: CCRF-CEM
COLO 205 = tested on: COLO 205
DU-145 = tested on: DU-145
EKVX = tested on: EKVX
HCC 2998 = tested on: HCC 2998
HCT-116 = tested on: HCT-116
HCT-15 = tested on: HCT-15
HOP-62 = tested on: HOP-62
HOP-92 = tested on: HOP-92
Hs-578T = tested on: Hs-578T
IGROV-1 = tested on: IGROV-1
K562 = tested on: K562
KM12 = tested on: KM12
LOX IMVI = tested on: LOX IMVI
M14 = tested on: M14
MCF7 = tested on: MCF7
MDA-MB-231 = tested on: MDA-MB-231
MDA-MB-435 = tested on: MDA-MB-435
MDA-N = tested on: MDA-N
MOLT-4 = tested on: MOLT-4
NCI-H226 = tested on: NCI-H226
NCI-H23 = tested on: NCI-H23
NCI-H460 = tested on: NCI-H460
NCI-H522 = tested on: NCI-H522
NCI/ADR-RES = tested on: NCI/ADR-RES
OVCAR-3 = tested on: OVCAR-3
OVCAR-4 = tested on: OVCAR-4
OVCAR-5 = tested on: OVCAR-5
OVCAR-8 = tested on: OVCAR-8
PC-3 = tested on: PC-3
RPMI-8226 = tested on: RPMI-8226
RXF 393 = tested on: RXF 393
SF-268 = tested on: SF-268
SF-295 = tested on: SF-295
SF-539 = tested on: SF-539
SK-MEL-2 = tested on: SK-MEL-2
SK-MEL-5 = tested on: SK-MEL-5
SK-OV-3 = tested on: SK-OV-3
SN12C = tested on: SN12C
SNB-19 = tested on: SNB-19
SNB-75 = tested on: SNB-75
SR = tested on: SR
SW-620 = tested on: SW-620
T47D = tested on: T47D
TK-10 = tested on: TK-10
U-251 = tested on: U-251
UACC-257 = tested on: UACC-257
UACC-62 = tested on: UACC-62
UO-31 = tested on: UO-31
A549 = tested on: A549
HL-60 = tested on: HL-60
HT-29 = tested on: HT-29
Malme-3M = tested on: Malme-3M
SK-MEL-28 = tested on: SK-MEL-28

Oc1nc2c(c(-c3ccc(F)cc3)n1)COC/C2=C\c1ccc(F)cc1
GI50 (786-0): > 100 µM (inactive)
GI50 (A498): > 100 µM (inactive)
GI50 (ACHN): > 100 µM (inactive)
GI50 (BT-549): > 100 µM (inactive)
GI50 (CAKI-1): > 100 µM (inactive)
GI50 (CCRF-CEM): > 100 µM (inactive)
GI50 (COLO 205): > 100 µM (inactive)
GI50 (DU-145): > 100 µM (inactive)
GI50 (EKVX): > 100 µM (inactive)
GI50 (HCC 2998): > 100 µM (inactive)
GI50 (HCT-116): > 100 µM (inactive)
GI50 (HCT-15): > 100 µM
GI50 (HOP-62): > 100 µM (inactive)
GI50 (HOP-92): > 100 µM (inactive)
GI50 (Hs-578T): > 100 µM (inactive)
GI50 (IGROV-1): > 100 µM (inactive)
GI50 (K562): > 100 µM (inactive)
GI50 (KM12): > 100 µM (inactive)
GI50 (LOX IMVI): > 100 µM (inactive)
GI50 (M14): > 100 µM (inactive)
GI50 (MCF7): > 100 µM (inactive)
GI50 (MDA-MB-231): > 100 µM (inactive)
GI50 (MDA-MB-435): > 100 µM (inactive)
GI50 (MDA-N): > 100 µM (inactive)
GI50 (MOLT-4): > 100 µM (inactive)
GI50 (NCI-H226): > 100 µM (inactive)
GI50 (NCI-H23): > 100 µM (inactive)
GI50 (NCI-H460): > 100 µM (inactive)
GI50 (NCI-H522): > 100 µM (inactive)
GI50 (NCI/ADR-RES): > 100 µM (inactive)
GI50 (OVCAR-3): > 100 µM (inactive)
GI50 (OVCAR-4): > 100 µM (inactive)
GI50 (OVCAR-5): > 100 µM (inactive)
GI50 (OVCAR-8): > 100 µM (inactive)
GI50 (PC-3): > 100 µM (inactive)
GI50 (RPMI-8226): > 100 µM (inactive)
GI50 (RXF 393): > 100 µM (inactive)
GI50 (SF-268): > 100 µM (inactive)
GI50 (SF-295): > 100 µM (inactive)
GI50 (SF-539): > 100 µM (inactive)
GI50 (SK-MEL-2): > 100 µM (inactive)
GI50 (SK-MEL-5): > 100 µM (inactive)
GI50 (SK-OV-3): > 100 µM (inactive)
GI50 (SN12C): > 100 µM (inactive)
GI50 (SNB-19): > 100 µM (inactive)
GI50 (SNB-75): > 100 µM (inactive)
GI50 (SR): > 100 µM (inactive)
GI50 (SW-620): > 100 µM (inactive)
GI50 (T47D): > 100 µM (inactive)
GI50 (TK-10): > 100 µM (inactive)
GI50 (U-251): > 100 µM (inactive)
GI50 (UACC-257): > 100 µM (inactive)
GI50 (UACC-62): > 100 µM (inactive)
GI50 (UO-31): > 100 µM (inactive)

CC(=O)O[C@H]1CC[C@@]2(C)[C@@H](CC[C@@H]3[C@@H]2CC(=O)[C@@]2(C)[C@H]3C[C@@H]3CC(C)=CC(=O)[C@@H]32)C1
GI50 (786-0): 39.5 µM (inactive)
GI50 (A498): > 100 µM (inactive)
GI50 (A549): 62.4 µM (inactive)
GI50 (ACHN): 66.7 µM (inactive)
GI50 (BT-549): 28.3 µM (inactive)
GI50 (CAKI-1): > 100 µM (inactive)
GI50 (CCRF-CEM): 36.1 µM (inactive)
GI50 (COLO 205): 58.5 µM (inactive)
GI50 (DU-145): 53.8 µM (inactive)
GI50 (EKVX): 28.9 µM (inactive)
GI50 (HCC 2998): 71.3 µM (inactive)
GI50 (HCT-116): 49.5 µM (inactive)
GI50 (HCT-15): 98.2 µM
GI50 (HL-60): 5.04 µM (inactive)
GI50 (HOP-62): 55.8 µM (inactive)
GI50 (HT-29): 31 µM (inactive)
GI50 (Hs-578T): 20.7 µM (inactive)
GI50 (IGROV-1): > 100 µM (inactive)
GI50 (K562): 40.5 µM (inactive)
GI50 (KM12): 57 µM (inactive)
GI50 (LOX IMVI): > 100 µM (inactive)
GI50 (M14): 29.7 µM (inactive)
GI50 (MCF7): 58.3 µM (inactive)
GI50 (MDA-MB-231): > 100 µM (inactive)
GI50 (MDA-MB-435): 58.6 µM (inactive)
GI50 (MDA-N): 43.1 µM (inactive)
GI50 (Malme-3M): 40.6 µM (inactive)
GI50 (NCI-H226): > 100 µM (inactive)
GI50 (NCI-H23): > 100 µM (inactive)
GI50 (NCI-H522): 39.5 µM (inactive)
GI50 (NCI/ADR-RES): 59 µM (inactive)
GI50 (OVCAR-3): 81.8 µM (inactive)
GI50 (OVCAR-4): 56.5 µM (inactive)
GI50 (OVCAR-5): > 100 µM (inactive)
GI50 (OVCAR-8): 59.7 µM (inactive)
GI50 (PC-3): 44.1 µM (inactive)
GI50 (RPMI-8226): 16 µM (inactive)
GI50 (RXF 393): 30.2 µM (inactive)
GI50 (SF-268): 36.2 µM (inactive)
GI50 (SF-295): 56.1 µM (inactive)
GI50 (SK-MEL-28): > 100 µM (inactive)
GI50 (SK-MEL-2): > 100 µM (inactive)
GI50 (SK-MEL-5): 40.9 µM (inactive)
GI50 (SK-OV-3): > 100 µM (inactive)
GI50 (SN12C): 41 µM (inactive)
GI50 (SNB-19): > 100 µM (inactive)
GI50 (SNB-75): 30.1 µM (inactive)
GI50 (SR): 23.5 µM (inactive)
GI50 (SW-620): > 100 µM (inactive)
GI50 (T47D): 40 µM (inactive)
GI50 (TK-10): > 100 µM (inactive)
GI50 (U-251): > 100 µM (inactive)
GI50 (UACC-257): 62.1 µM (inactive)
GI50 (UACC-62): 64.7 µM (inactive)
GI50 (UO-31): 23.2 µM (inactive)
